{"source": "PubChem BioAssay AID1356", "about": "(Sanford-Burnham Center for Chemical Genomics, 2008)", "system": "HeLa thapsigargin-induced death, ATPlite luminescence, 24 h", "test": "protection from thapsigargin-induced HeLa death, SAR follow-up, cell-based, HeLa cervical carcinoma, ATP content (AID 1356)", "settings": "at 25 µM, stronger effect = higher value", "key": {"[1]": {"settings": "measured here: survival at thapsigargin 15 uM"}, "[2]": {"settings": "measured here: survival at thapsigargin 20 uM"}, "[3]": {"settings": "measured here: survival, thapsigargin level col 9"}, "[4]": {"settings": "measured here: survival, thapsigargin level col 10"}}}
{"molecule": "COc1ccc(C2CC(=O)C3=C(C2)Nc2ccccc2NC3c2cc(C)ccc2C)cc1", "note": "(stereo not given)", "values": [{"measurement": "survival", "value": 99, "unit": "%"}, {"measurement": "survival", "setting": "[1]", "value": 83, "unit": "%"}, {"measurement": "survival", "setting": "[2]", "value": 24, "unit": "%"}, {"measurement": "survival", "setting": "[3]", "value": 80, "unit": "%"}, {"measurement": "survival", "setting": "[4]", "value": 81, "unit": "%"}]}
{"molecule": "COc1ccc(C2CC(=O)C3=C(C2)Nc2ccccc2NC3c2cccc(C(F)(F)F)c2)cc1OC", "note": "(stereo not given)", "values": [{"measurement": "survival", "value": 90, "unit": "%"}, {"measurement": "survival", "setting": "[1]", "value": 100, "unit": "%"}, {"measurement": "survival", "setting": "[2]", "value": 122, "unit": "%"}, {"measurement": "survival", "setting": "[3]", "value": 88, "unit": "%"}, {"measurement": "survival", "setting": "[4]", "value": 90, "unit": "%"}]}
{"molecule": "CCCOc1ccc(C2Nc3ccccc3NC3=C2C(=O)CC(c2ccc(OC)c(OC)c2)C3)cc1", "note": "(stereo not given)", "values": [{"measurement": "survival", "value": 91, "unit": "%"}, {"measurement": "survival", "setting": "[1]", "value": 109, "unit": "%"}, {"measurement": "survival", "setting": "[2]", "value": 90, "unit": "%"}, {"measurement": "survival", "setting": "[3]", "value": 88, "unit": "%"}, {"measurement": "survival", "setting": "[4]", "value": 90, "unit": "%"}]}
{"molecule": "CC1(C)CC(=O)C2=C(C1)Nc1ccccc1NC2c1ccc(-c2ccccc2)cc1", "note": "(stereo not given)", "values": [{"measurement": "survival", "value": 97, "unit": "%"}, {"measurement": "survival", "setting": "[1]", "value": 106, "unit": "%"}, {"measurement": "survival", "setting": "[2]", "value": 114, "unit": "%"}, {"measurement": "survival", "setting": "[3]", "value": 92, "unit": "%"}, {"measurement": "survival", "setting": "[4]", "value": 88, "unit": "%"}]}
{"molecule": "COc1ccc(C2CC(=O)C3=C(C2)Nc2ccccc2NC3c2ccccc2C(F)(F)F)cc1OC", "note": "(stereo not given)", "values": [{"measurement": "survival", "value": 92, "unit": "%"}, {"measurement": "survival", "setting": "[1]", "value": 107, "unit": "%"}, {"measurement": "survival", "setting": "[2]", "value": 72, "unit": "%"}, {"measurement": "survival", "setting": "[3]", "value": 93, "unit": "%"}, {"measurement": "survival", "setting": "[4]", "value": 91, "unit": "%"}]}
{"molecule": "CCOc1cccc(C2Nc3ccccc3NC3=C2C(=O)CC(c2ccc(OC)cc2)C3)c1", "note": "(stereo not given)", "values": [{"measurement": "survival", "value": 96, "unit": "%"}, {"measurement": "survival", "setting": "[1]", "value": 8, "unit": "%"}, {"measurement": "survival", "setting": "[2]", "value": 3, "unit": "%"}, {"measurement": "survival", "setting": "[3]", "value": 81, "unit": "%"}, {"measurement": "survival", "setting": "[4]", "value": 106, "unit": "%"}]}
{"molecule": "COc1ccc(C2CC(=O)C3=C(C2)Nc2ccccc2NC3c2cccc(Oc3ccccc3)c2)cc1OC", "note": "(stereo not given)", "values": [{"measurement": "survival", "value": 90, "unit": "%"}, {"measurement": "survival", "setting": "[1]", "value": 96, "unit": "%"}, {"measurement": "survival", "setting": "[2]", "value": 102, "unit": "%"}, {"measurement": "survival", "setting": "[3]", "value": 87, "unit": "%"}, {"measurement": "survival", "setting": "[4]", "value": 85, "unit": "%"}]}
{"molecule": "COc1ccc(C2CC(=O)C3=C(C2)Nc2ccccc2NC3c2cccc(Br)c2)cc1OC", "note": "(stereo not given)", "values": [{"measurement": "survival", "value": 87, "unit": "%"}, {"measurement": "survival", "setting": "[1]", "value": 93, "unit": "%"}, {"measurement": "survival", "setting": "[2]", "value": 90, "unit": "%"}, {"measurement": "survival", "setting": "[3]", "value": 86, "unit": "%"}, {"measurement": "survival", "setting": "[4]", "value": 92, "unit": "%"}]}
{"molecule": "CSc1ccc(C2Nc3ccccc3NC3=C2C(=O)CC(c2ccccc2)C3)cc1", "note": "(stereo not given)", "values": [{"measurement": "survival", "value": 85, "unit": "%"}, {"measurement": "survival", "setting": "[1]", "value": 77, "unit": "%"}, {"measurement": "survival", "setting": "[2]", "value": 23, "unit": "%"}, {"measurement": "survival", "setting": "[3]", "value": 81, "unit": "%"}, {"measurement": "survival", "setting": "[4]", "value": 83, "unit": "%"}]}
{"molecule": "O=C1CC(c2ccccc2)CC2=C1C(c1c(F)cccc1Cl)Nc1ccccc1N2", "note": "(stereo not given)", "values": [{"measurement": "survival", "value": 118, "unit": "%"}, {"measurement": "survival", "setting": "[1]", "value": 89, "unit": "%"}, {"measurement": "survival", "setting": "[2]", "value": 18, "unit": "%"}, {"measurement": "survival", "setting": "[3]", "value": 93, "unit": "%"}, {"measurement": "survival", "setting": "[4]", "value": 99, "unit": "%"}]}
{"molecule": "CCOc1cc(C2Nc3ccccc3NC3=C2C(=O)CC(c2ccc(OC)cc2)C3)cc(Cl)c1O", "note": "(stereo not given)", "values": [{"measurement": "survival", "value": 129, "unit": "%"}, {"measurement": "survival", "setting": "[1]", "value": 29, "unit": "%"}, {"measurement": "survival", "setting": "[2]", "value": 8, "unit": "%"}, {"measurement": "survival", "setting": "[3]", "value": 90, "unit": "%"}, {"measurement": "survival", "setting": "[4]", "value": 106, "unit": "%"}]}
